Experimental data as given in ChEMBL document CHEMBL4229387, “Recent progress of the development of dipeptidyl peptidase-4 inhibitors for the treatment of type 2 diabetes mellitus” (Eur J Med Chem, 2018).
Peptide text beside a SMILES is read from it.

Target: T1, Dipeptidyl peptidase 4 (Homo sapiens, UniProt P27487)
Test: Inhibition of recombinant human DPP4 pre-incubated for 30 mins before Gly-Pro-Aminomethylcoumarin substrate addition
Settings: not given
Target sequence in this assay (P27487 whole entry): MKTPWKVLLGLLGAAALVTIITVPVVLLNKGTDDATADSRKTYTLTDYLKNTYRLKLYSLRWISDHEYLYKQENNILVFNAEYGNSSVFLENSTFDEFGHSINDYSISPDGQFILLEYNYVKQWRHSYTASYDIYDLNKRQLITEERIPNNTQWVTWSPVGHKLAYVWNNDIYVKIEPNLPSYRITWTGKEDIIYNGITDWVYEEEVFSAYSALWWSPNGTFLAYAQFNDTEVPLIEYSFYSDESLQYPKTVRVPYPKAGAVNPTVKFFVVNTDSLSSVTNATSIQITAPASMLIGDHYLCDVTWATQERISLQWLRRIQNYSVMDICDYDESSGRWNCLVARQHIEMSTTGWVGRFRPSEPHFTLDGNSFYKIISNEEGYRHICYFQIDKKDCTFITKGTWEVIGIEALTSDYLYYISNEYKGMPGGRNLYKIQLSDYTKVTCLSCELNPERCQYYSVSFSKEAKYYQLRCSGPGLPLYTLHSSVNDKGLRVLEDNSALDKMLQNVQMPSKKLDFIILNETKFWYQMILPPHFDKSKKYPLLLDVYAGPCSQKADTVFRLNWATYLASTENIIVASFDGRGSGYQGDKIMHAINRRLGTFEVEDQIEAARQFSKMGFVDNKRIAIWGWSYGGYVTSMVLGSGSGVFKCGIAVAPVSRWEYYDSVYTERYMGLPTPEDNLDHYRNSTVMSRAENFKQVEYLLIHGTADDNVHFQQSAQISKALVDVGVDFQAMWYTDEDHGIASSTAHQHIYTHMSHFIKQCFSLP

For `CC(C)=CCn1c(N2CCCC(N)C2)nc2c1c(=O)n(Cc1ccccc1C#N)c(=O)n2C` (centres undefined), the IC50 was 19.6 nM.

Target: T1, Dipeptidyl peptidase 4
Test: Inhibition of recombinant human DPP4 using H-Gly-Pro-AMC as substrate preincubated for 15 mins followed by substrate addition measured for 20 mins with 1 min interval
Settings: not given
Target sequence in this assay (P27487 whole entry): as above

In order of rising IC50:
1. O=C(N/N=C/c1c(O)ccc2ccccc12)c1n[nH]c2c1CCCC2  2120 nM
2. O=C(N/N=C/c1cccc2ccccc12)c1[nH]nc2c1CCCC2  3440 nM

Target: T2, Dipeptidyl peptidase 4 (Sus scrofa, UniProt P22411)
T2 sequence (P22411 whole entry): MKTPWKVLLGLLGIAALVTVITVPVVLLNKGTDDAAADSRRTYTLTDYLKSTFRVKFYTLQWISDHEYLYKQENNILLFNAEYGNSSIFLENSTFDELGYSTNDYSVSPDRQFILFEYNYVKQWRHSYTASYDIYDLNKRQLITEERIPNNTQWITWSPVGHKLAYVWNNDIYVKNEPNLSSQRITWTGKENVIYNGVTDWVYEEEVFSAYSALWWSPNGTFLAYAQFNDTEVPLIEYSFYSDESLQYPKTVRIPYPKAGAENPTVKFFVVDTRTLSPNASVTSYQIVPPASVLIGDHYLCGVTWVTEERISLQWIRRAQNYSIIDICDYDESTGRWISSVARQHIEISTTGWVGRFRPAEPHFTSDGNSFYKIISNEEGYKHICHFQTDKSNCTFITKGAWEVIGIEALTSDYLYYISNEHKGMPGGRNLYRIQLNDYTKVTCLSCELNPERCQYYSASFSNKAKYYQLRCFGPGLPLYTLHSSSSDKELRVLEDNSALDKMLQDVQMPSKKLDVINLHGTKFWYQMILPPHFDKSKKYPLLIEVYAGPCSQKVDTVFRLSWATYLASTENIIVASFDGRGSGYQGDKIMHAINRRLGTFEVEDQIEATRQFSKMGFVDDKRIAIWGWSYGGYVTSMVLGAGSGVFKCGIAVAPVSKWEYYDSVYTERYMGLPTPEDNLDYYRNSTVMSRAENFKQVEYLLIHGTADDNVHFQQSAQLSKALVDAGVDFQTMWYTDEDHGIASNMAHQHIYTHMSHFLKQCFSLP
Test: Inhibition of porcine DPP4 after 30 mins by luminescence assay
Settings: not given

In order of falling IC50:
1. O=C1CC(c2ccc(O)cc2)Oc2cc(O)cc(O)c21 (centres undefined)  2500 nM
2. COc1c(O)cc2oc(-c3ccc(O)cc3)cc(=O)c2c1O [HISPIDULIN]  490 nM
3. COc1cc2oc(-c3ccc(O)cc3)cc(=O)c2c(O)c1OC [CIRSIMARITIN]  430 nM

Target: T1, Dipeptidyl peptidase 4
Test: Inhibition of DPP4 (unknown origin) using Gly-Pro-AMC as substrate preincubated for 4 secs followed by substrate addition and measured after 30 mins by […] assay
Settings: not given
Target sequence in this assay (P27487 whole entry): as the sequence (P27487 whole entry) above

In order of falling IC50:
1. C[C@@H]1O[C@@H](OC[C@H]2O[C@@H](Oc3cc(O)c4c(c3)O[C@H](c3ccc(O)c(O)c3)CC4=O)[C@H](O)[C@@H](O)[C@@H]2O)[C@H](O)[C@H](O)[C@H]1O [ERIOCITRIN]  10400 nM
2. O=C(O[C@@H]1Cc2c(O)cc(O)cc2O[C@@H]1c1cc(O)c(O)c(O)c1)c1cc(O)c(O)c(O)c1 [EPIGALOCATECHIN GALLATE]  10200 nM
3. O=C(O)c1cc(O)c(O)c(O)c1 [GALLIC ACID]  4650 nM
4. O=C(O)/C=C/c1ccc(O)c(O)c1 [CAFFEIC ACID]  3370 nM
5. O=c1c(O)c(-c2ccc(O)c(O)c2)oc2cc(O)cc(O)c12 [QUERCETIN]  2920 nM
6. COc1cc(-c2[o+]c3cc(O)cc(O)c3cc2O)cc(OC)c1O [MALVIDIN CHLORIDE]  1410 nM
7. Oc1cc(O)c2cc(O)c(-c3ccc(O)c(O)c3)[o+]c2c1 [CYANIDIN CHLORIDE]  1410 nM
8. O=c1c(O)c(-c2ccc(O)cc2)oc2cc(O)cc(O)c12 [KAEMPFEROL]  490 nM
9. O=c1c(-c2ccc(O)cc2)coc2cc(O)cc(O)c12 [GENISTEIN]  480 nM
10. OC[C@H]1O[C@@H](Oc2cc3c(O)cc(O)cc3[o+]c2-c2ccc(O)c(O)c2)[C@H](O)[C@@H](O)[C@@H]1O [KUROMANIN]  420 nM
11. COc1ccc([C@@H]2CC(=O)c3c(O)cc(O)cc3O2)cc1O [HESPERETIN]  280 nM
12. O=C1C[C@@H](c2ccc(O)cc2)Oc2cc(O)cc(O)c21 [NARINGENIN]  240 nM
13. O=c1cc(-c2ccccc2)oc2ccccc12 [FLAVONE]  170 nM
14. O=c1cc(-c2ccc(O)cc2)oc2cc(O)cc(O)c12 [APIGENIN]  140 nM
15. O=c1cc(-c2ccc(O)c(O)c2)oc2cc(O)cc(O)c12 [LUTEOLIN]  120 nM
16. Oc1ccc(/C=C/c2cc(O)cc(O)c2)cc1 [RESVERATROL]  0.6 nM

Target: T1, Dipeptidyl peptidase 4
Test: Inhibition of recombinant human DPP4 using Gly-Pro-AMC as substrate after 1 hr by fluorescence assay
Settings: not given
Target sequence in this assay (P27487 whole entry): as above

Compound `N[C@@H](CCn1cc(-c2ccncc2)nn1)Cc1cc(F)c(F)cc1F` has an IC50 of 14 nM.

Target: T2, Dipeptidyl peptidase 4
Test: Inhibition of porcine kidney DPP4
Settings: not given

`CC(C)C[C@H](NC(=O)[C@@H](N)CC(C)C)C(=O)N[C@@H](C)C(=O)N1CCC[C@H]1C(=O)O` (H-LLAP-OH) and H-MAGVDHI-OH fall in the same range of IC50: 43000 to 159000 nM for the first, 43000 to 159000 nM for the second.

In the case of `CC[C@H](C)[C@H](N)C(=O)N[C@@H](CC(C)C)C(=O)N[C@@H](C)C(=O)N1CCC[C@H]1C(=O)O` (H-ILAP-OH), the IC50 is reported as 43000 to 159000 nM.

Target: T1, Dipeptidyl peptidase 4
Test: Inhibition of recombinant human DPP4 using Gly-Pro-AMC as substrate after 30 mins by fluorescence assay
Settings: not given
Target sequence in this assay (P27487 whole entry): as above

Compound `Brc1nc2n(n1)CC(c1cc3ccccc3o1)=NN2` has an IC50 of 28000 nM.

Target: T1, Dipeptidyl peptidase 4
Test: Inhibition of DPP4 (unknown origin) using Gly-Pro-pNA as substrate after 60 mins
Settings: not given
Target sequence in this assay (P27487 whole entry): as above

Compound `CC(C)[C@H](N)C(=O)N[C@@H](Cc1c[nH]c2ccccc12)C(=O)O` [VALYLTRYPTOPHAN] (H-Val-Trp-OH) has an IC50 of 65700 nM.

Target: T1, Dipeptidyl peptidase 4
Test: Inhibition of recombinant human DPP4 using H-Gly-Pro-AMC as substrate after 30 mins by fluorometric analysis
Settings: not given

`O=C(CNC(=O)C1CCCN(S(=O)(=O)c2ccccc2)C1)Nc1ccc(Cl)cc1` (centres undefined) showed an IC50 of 94.8 nM.

Target: T1, Dipeptidyl peptidase 4
Test: Inhibition of DPP4 (unknown origin)
Settings: not given
Target sequence in this assay (P27487 whole entry, looked up): as the sequence (P27487 whole entry) above

`CC#CCn1c(N2CCC[C@@H](N)C2)cc(=O)n(Cc2cn(CCC(=O)OC)nn2)c1=O` showed an IC50 of 64.3 nM.

Target: T1, Dipeptidyl peptidase 4
Test: Inhibition of recombinant human DPP4 expressed in baculovirus expression system using Ala-Pro-AMC as substrate by fluorometric analysis
Settings: not given

In order of falling IC50:
1. Cc1cc(-c2cn([C@@H]3CN[C@H](C(=O)N4CCC(F)(F)C4)C3)nn2)ccc1F  1320 nM
2. COC(=O)c1cn([C@@H]2CN[C@H](C(=O)N3CCC(F)(F)C3)C2)nn1  720 nM
3. O=C([C@@H]1C[C@H](n2cc(-c3ccccc3)nn2)CN1)N1CCC(F)(F)C1  660 nM

Tested on: not listed separately
Test: Elimination half life in human
Settings: in vivo

Going from `O=C([C@@H]1C[C@H](N2CCN(c3ncccn3)CC2)CN1)N1CCC(F)(F)C1` [GOSOGLIPTIN] to `Cc1cc(N2CCN([C@@H]3CN[C@H](C(=O)N4CCSC4)C3)CC2)n(-c2ccccc2)n1` [TENELIGLIPTIN], the half-life falls from 63.5 h to 26.9 h (2.4-fold).

`CC1(C)CCC(=O)N(C[C@@H](N)CC(=O)N2CCc3c(nc(C(F)(F)F)nc3C(F)(F)F)C2)C1` and `N[C@@H](CC(=O)N1CCn2c(nnc2C(F)(F)F)C1)Cc1cc(F)c(F)cc1F` [SITAGLIPTIN] cannot be ordered by half-life: 16.7 to 21.3 h for the first, 8 to 24 h for the second.

Compared with `Cc1cc2ncc(C(=O)NCC(C)(C)NCC(=O)N3CCC[C@H]3C#N)cn2n1` [ANAGLIPTIN], `Cn1c(=O)cc(N2CCC[C@@H](N)C2)n(Cc2ccccc2C#N)c1=O` [ALOGLIPTIN] is higher in half-life: 5.8 to 6.2 h for the first, 21.1 h for the second.

`CC(C)(C)OC[C@@H]1C(=O)NCCN1C(=O)C[C@H](N)Cc1cc(F)c(F)cc1F` [EVOGLIPTIN] and `Cn1c(=O)cc(N2CCC[C@@H](N)C2)n(Cc2cc(F)ccc2C#N)c1=O` [TRELAGLIPTIN] cannot be ordered by half-life: 32.5 to 39.8 h for the first, 38.4 to 54.3 h for the second.

First: N#C[C@@H]1C[C@@H]2C[C@@H]2N1C(=O)[C@@H](N)C12CC3CC(CC(C3)C1)C2
Second: CC#CCn1c(N2CCC[C@@H](N)C2)nc2c1c(=O)n(Cc1nc(C)c3ccccc3n1)c(=O)n2C [LINAGLIPTIN]
The half-life of the first is lower: 2 to 4 h for the first, 10 to 40 h for the second.

In the case of `CS(=O)(=O)n1cc2c(n1)CN([C@H]1CO[C@H](c3cc(F)ccc3F)[C@@H](N)C1)C2` [OMARIGLIPTIN], the half-life is reported as 11 to 22 h.
